# No end group written: not given here.
# Legend:
# [1] = solution NMR
# Description: pKa values were determined by following the chemical shifts of Trp1-Hα and Trp1-Hβ at pH values of 6.0, 7.0, 7.5, 8.0 and
# 9.0. The 10 obtained chemical shifts were fitted to the Henderson-Hasselbach equation with the assumption that peak
# position is a weighted average of the two end-point chemical shifts; optimization parameters were the two end-point shifts
# (representing fully ionized and fully deionized forms of the N-terminal amino group of the peptide. Errors were determined
# by Monte Carlo simulations with a measurement error of 0.01 ppm for all chemical shifts.
# [2] = Phase diagram in tris buffer: pH at which turbidity (LLPS) appears vs peptide concentration; type: physicochemical; settings: 0.2 M NaCl, room temperature; for pH at which turbidity (LLPS) appears: 20 mM tris, turbidity A500
# Description: We sought to design a library of LLPS-promoting peptide building blocks which form synthetic biomolecular condensates with tunable chemical composition and physical properties. We hypothesized that minimalistic variants of protein low complexity domains (LCDs) will self-assemble into liquid droplets through LLPS. Specifically, we envisioned that in order to keep the sequence length relatively short, the peptide composition should include high content of aromatic and basic amino acids that can interact through π–π or cation–π interactions. To test this hypothesis, we designed a primary sequence that contains various LLPS-promoting motifs. Inspired by LCDs of ribonucleoproteins (RNPs) and IDPs that are rich in arginine-glycine (RG) dyad or RGG triad repeats, we incorporated three repeats of an RG dyad (Fig. 1a), where glycine (Gly) provides flexibility and arginine (Arg) promotes electrostatic interactions with the terminal carboxylic group, cation- π or π interactions with aromatic amino acids (Fig. 1a). While both lysine (Lys) and Arg have basic side chain groups, the guanidine group of Arg delocalizes the charge due to the π bonded system and thus can promote more versatile binding modes compared to Lys, through cation–π and π–π interactions. Thus, considering that the Arg side chain can interact with side chains of aromatic amino acids, we incorporated tryptophan (Trp) and tyrosine (Tyr) into the peptide sequence at a 1:1 stoichiometry with Arg, with aromatic amino acids positioned at both ends of the sequence to enhance π–π stacking interactions. Finally, we considered the elastin-like polypeptide (ELP) repeating motif VPGXG. This pentapeptide sequence is a common LLPS-promoting motif used in engineered ordered/disordered polypeptides, where X can be any amino acid except proline (Pro), and a hydrophobic amino acid at this position promotes coacervation[39],[40]. […] Building on these previous findings, we incorporated the sequence WPGVG, thus obtaining the 14-mer peptide WGRGRGRGWPGVGY termed WGR-1 (Figs. 1a, 2a). WGR-1 forms droplets by self-coacervation at neutral pH in the presence of 0.2 M NaCl, which reduces the electrostatic repulsion of the basic peptide (Fig. 1b). We created a phase diagram of WGR-1 as a function of pH and peptide concentration in tris buffer by gradually increasing the pH and monitoring LLPS, as indicated by appearance of sample turbidity (Fig. 2b), where all experiments performed at room temperature. As expected, increasing peptide concentration decreased the pH in which visible turbidity and droplets are observed, where the critical LLPS concentration is 8 mM. To confirm that the turbidity is a result of LLPS and droplet formation rather than aggregation, we used bright field laser scanning confocal microscopy (Fig. 2c).
# Fig. 2 Peptide sequence controls LLPS propensity and droplet formation. a Table of the designed peptide sequences. b Phase diagram of the peptides as a function of peptide concentration and pH, in tris buffer with 0.2 M NaCl, at room temperature. […] Source data are provided as a Source Data file. c Confocal microscopy bright field images of peptide liquid droplets formed at a concentration of 20 mM in Tris buffer at pH 8 with 0.2 M NaCl. Scale bars = 20 μm. Inset: macroscopic images of the peptide solutions. ‘Source data are provided as a Source Data file. TEXT PRINTED IN THE PICTURE: (b) WGR-1: LLPS | (b) WGR-2: No LLPS | (b) WGR-3: LLPS | (b) WGR-4: LLPS | (b) WGR-5: LLPS | (b) WGK: No LLPS DOUBTS OF THE COPYIST ABOUT THIS PICTURE: Panel b: "LLPS" / "No LLPS" are class labels printed inside the phase diagrams, with no numbers. In the diagrams with a curve, "LLPS" marks a region of the plot. / Panel c: the handwritten labels on the vials in the insets cannot be read with certainty and were left out. […]
sequence,measurement,setting,value
WGRGRGRGWPGVGY [WGR-1],"differential NaCl-induced change, largest (residue P10)",,5.5 Hz
same,pKa of the N-terminal amine group,"[1]; Trp1-Hα and Trp1-Hβ shifts at pH 6.0, 7.0, 7.5, 8.0, 9.0, Henderson-Hasselbach fit, error by Monte Carlo",7.50 ± 0.01
same,pKa of the Tyr14 phenolic ring,[1]; pH-induced chemical shift changes,~ 10
same,pH at which turbidity (LLPS) appears,"[2]; 8 mM peptide, mean of n=3",8.483
same,pH at which turbidity (LLPS) appears,"[2]; 8 mM peptide, replicate 1",8.43
same,pH at which turbidity (LLPS) appears,"[2]; 8 mM peptide, replicate 2",8.47
same,pH at which turbidity (LLPS) appears,"[2]; 8 mM peptide, replicate 3",8.55
same,pH at which turbidity (LLPS) appears,"[2]; 10 mM peptide, mean of n=3",7.88
same,pH at which turbidity (LLPS) appears,"[2]; 10 mM peptide, replicate 1",7.84
same,pH at which turbidity (LLPS) appears,"[2]; 10 mM peptide, replicate 2",7.86
same,pH at which turbidity (LLPS) appears,"[2]; 10 mM peptide, replicate 3",7.94
same,pH at which turbidity (LLPS) appears,"[2]; 15 mM peptide, mean of n=3",7.483
same,pH at which turbidity (LLPS) appears,"[2]; 15 mM peptide, replicate 1",7.45
same,pH at which turbidity (LLPS) appears,"[2]; 15 mM peptide, replicate 2",7.51
same,pH at which turbidity (LLPS) appears,"[2]; 15 mM peptide, replicate 3",7.49
same,pH at which turbidity (LLPS) appears,"[2]; 20 mM peptide, mean of n=3",7.12
same,pH at which turbidity (LLPS) appears,"[2]; 20 mM peptide, replicate 1",7.13
same,pH at which turbidity (LLPS) appears,"[2]; 20 mM peptide, replicate 2",7.08
same,pH at which turbidity (LLPS) appears,"[2]; 20 mM peptide, replicate 3",7.15
same,pH at which turbidity (LLPS) appears,"[2]; 30 mM peptide, mean of n=3",6.85
same,pH at which turbidity (LLPS) appears,"[2]; 30 mM peptide, replicate 1",6.82
same,pH at which turbidity (LLPS) appears,"[2]; 30 mM peptide, replicate 3",6.88
same,critical LLPS concentration,"[2]; tris buffer, lowest of 5-30 mM at which turbidity/droplets form",8 mM

# Source: article PMC9879991, “Biomolecular condensates formed by designer minimalistic peptides” (Nature Communications, 2023)
